Some test systems named below: LXFL 529 NSCLC; RXF-631 renal; HOP-18 NSCLC.
Holding throughout (assay): growth of human tumour cells (NCI), 48 h

“And” between values parts separate entries of the source, which are not always exact repeats. Equal entries are not always repeated.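 96-well plates; 48 h exposure; 5 concentrations. Endpoints by linear interpolation between flanking doses. Not reached: highest tested concentration assigned. GI50 = concentration required for 50% inhibition of growth. TGI denotes the concentration required for complete inhibition of growth.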 Some results are limits rather than exact numbers.

Take `Nc1cccc2c1C(=O)c1cccc(N)c1C2=O`: the TGI in the test on LXFL 529 NSCLC and in the test with RXF-631 renal was over 100 µM throughout.

As for `COC(=O)C1CCC(=O)N1C(=O)Cc1ccc(OC)cc1` (configuration not stated), the TGI with LXFL 529 NSCLC was over 100 µM.

Consider `[Cl][Pt+2][Cl].[NH-]C1CCCCC1[NH-]` (configuration not stated), for which, in the test on HOP-18 NSCLC, the GI50 was 25.6 µM and > 100 µM and 28.4 µM; the TGI was over 100 µM.

Consider `OCC1OC(n2cnc3cncnc32)C(O)C1O` (configuration not stated), for which, in the test with HOP-18 NSCLC, the TGI stood at 8.15 µM.

Compound `Cc1ccc(C(C)(C)C[P+](C)(c2ccccc2)c2ccccc2)cc1` came in with a TGI in the test on HOP-18 NSCLC of over 47.8 µM.

The values are drawn from PubChem BioAssay (NCI).
